Data reported in patent US20160022168A1, “BRAIN STATE DEPENDENT THERAPY FOR IMPROVED NEURAL TRAINING AND REHABILITATION” (UNIVERSITY OF LETHBRIDGE, priority 2014, published 2016).

Experiments:
auditory cortex = assay: Population recordings in auditory cortex (A1) before, during and after tone stimulation in urethane-anesthetised rats; format: in vivo, Long Evans rats; details: for brain state in auditory cortex: urethane-anesthetised rats, carbachol infused into posterior hypothalamic nucleus, amphetamine 1 mg/kg IP, MK801 0.1 mg/kg i.p.
Procedure: (§1) Rats were then placed in a stereotaxic frame, and a window in the skull was prepared over primary somatosensory cortex (S1) hindlimb area (AP −1 mm; ML 2 mm; DV 1.5 mm) For auditory experiments, 8 Long Evans rats (250-350 g) were anesthetised with urethane (1.5 g/kg IP) and placed in a nasal restraint that left the ears free. A window in the skull (2×3 mm) was prepared over the primary auditory cortex. For all recordings, Applicant used silicon probes consisting of eight shanks (200 μm shank separation); each shank had 4 recording sites in a tetrode configuration (20 μm separation between sites, 160 μm^2 site area; 1-3 MOhm impedance; NeuroNexus Technologies).
To ensure that our results are not affected by differences in firing rates among animals, Applicant down sampled the multi-unit activity of all animals to match the number of spikes in the sample with the lowest firing rate.

[1] = test system: primary somatosensory cortex (S1); assay: Population recordings in primary somatosensory cortex (S1) before, during and after tactile stimulation in urethane-anesthetised rats; format: in vivo, Long Evans rats; details: for firing rate reactivation (explained variance) during the stimulation period: 1 sec intervals of spontaneous activity, FIG. 4C; for Euclidian distance between firing rate correlation matrices, evoked vs following spontaneous compared with evoked vs preceding spontaneous: FIG. 4B, paired t-test; for mean corr. coef. change of latency correlation (spontaneous vs evoked) after tactile stimulation: latency from cross-correlogram with MUA, FIG. 2E; for mean corr. coef. change of latency correlation (spontaneous vs evoked) after tactile stimulation / mean corr. coef. change of latency correlation from pairwise correlograms: mean ± SEM; for mean corr. coef. change of latency correlation from pairwise correlograms: pair-wise cross-correlograms, FIG. 2E white bars; for latency correlation after vs before stimulation (averaged values): t-test
Procedure: as §1
The time course of the experimental protocol is illustrated in FIG. 1A and FIG. 1B. […] Each recording period consisted of 10 min of spontaneous activity, followed by 20 minutes of tactile stimulation, and then another 10 min of spontaneous activity. The tactile stimulation consisted of 600 repetitions of 1 second stimulation at 20 Hz followed by 1 second without stimulation. The tactile stimulator consisted of a plastic rod attached at one end to a membrane of a speaker controlled by a computer. The other end of the rod was placed in contact with left hind limb.
In order to quantify temporal relations among neurons, Applicant calculated the mean spike latency as described previously. Briefly, for each neuron, latency is defined as the center of mass of a cross-correlogram of that neuron with the summed activity of all other simultaneously recorded cells (MUA), within a time window of 100 ms (FIG. 2A). Before calculating the center of mass, cross-correlograms were smoothed with a Gaussian kernel with SD=5 ms and normalized between 0 and 1 to discard effects of baseline activity. Thus this measure estimates the time when the corresponding neuron is most likely to fire with respect to the population activity. In addition to analysis of cross-correlograms between single neurons and multiunit activity as described above, Applicant also calculated latency from pair-wise cross-correlograms to look at temporal relations between neurons in more detail (FIG. 2E white bars).
Extracellular signals were high-pass filtered (0.1 Hz) and amplified (1,000 times) using a 64-channel amplifier (Neuralynx). Signals were then digitized at 32 kHz. Units were identified and isolated by a semiautomatic cluster cutting algorithm (available at: klustakwik.sourceforge.net), followed by manual clustering (MClust).
To ensure that our results are not affected by differences in firing rates among animals, Applicant down sampled the multi-unit activity of all animals to match the number of spikes in the sample with the lowest firing rate. […]
For this analysis Applicant only included neurons with a firing rate above 0.6 Hz.

C[C@]12N[C@H](Cc3ccccc31)c1ccccc12 [MK801]
replay activity (reverberation of stimulus-evoked patterns) (auditory cortex; after NMDA receptor antagonist application): suppressed

C[N+](C)(C)CCOC(N)=O [carbachol]
brain state in auditory cortex (auditory cortex): desynchronization of the brain state

CCOC(N)=O [urethane]
brain state in auditory cortex (auditory cortex): synchronized brain state
firing rate reactivation (explained variance) during the stimulation period ([1]; S1): significant firing rate reactivation
Euclidian distance between firing rate correlation matrices, evoked vs following spontaneous compared with evoked vs preceding spontaneous ([1]; S1): non-significant increase in similarity
mean corr. coef. change of latency correlation (spontaneous vs evoked) after tactile stimulation ([1]; S1): −0.03±0.06
mean corr. coef. change of latency correlation from pairwise correlograms ([1]; S1): 0.049±0.025
latency correlation after vs before stimulation (averaged values) ([1]; S1): not significantly different
brain state (cortical activity, LFP and unit activity) in S1 ([1]; urethane 1.5 g/kg IP, amphetamine 1 mg/kg injected in addition): synchronized state

d-Methamphetamine HCl
firing rate reactivation (explained variance) during the stimulation period ([1]; S1): significant firing rate reactivation
Euclidian distance between firing rate correlation matrices, evoked vs following spontaneous compared with evoked vs preceding spontaneous ([1]; S1): smaller
mean slope of latency correlation after stimulation ceased ([1]; S1, after stimulation FIG. 2G, ± SD): −0.07±0.08
mean slope of latency correlation, pre-stimulus spontaneous periods ([1]; S1, first three points FIG. 2G, ± SD): −0.01±0.1
mean corr. coef. change of latency correlation (spontaneous vs evoked) after tactile stimulation ([1]; S1): 0.31±0.062
mean corr. coef. change of latency correlation from pairwise correlograms ([1]; S1): 0.098±0.023
latency correlation after vs before stimulation (averaged values) ([1]; S1): significantly higher after stimulation
mean slope of latency correlation during stimulation ([1]; S1, three points during stimulation FIG. 2G, ± SD): 0.11±0.12
duration of desynchronized state after injection ([1]; urethane-anesthetised rats, amphetamine 1 mg/kg): at least 30 minutes
